# Measurements: patent US20030003451A1, “Novel G protein-coupled receptors” (priority 2000, published 2003)
# Columns and labels:
# nGPCR-51 = target: T1, nGPCR-51 (Homo sapiens, UniProt Q969V1); test: Radioligand saturation binding assay, membranes of cells transiently expressing nGPCR-51
# T1 construct: expressed in transfected cells
# Protocol: HEK 293 or COS 7 cells transiently expressing nGPCR-51, or CHO K-I cells stable expressing nGPCR-51, were grown to sub-confluence (2 days post-transfection for transients), harvested from flasks in Dulbecco's PBS and pelleted by low speed centrifugation (2500 rpm) for 10 minutes. Cell pellets were homogenized in 10 ml tissue buffer (50 mM Hepes, 10 mM MgCl2, 2 mM EGTA, 1 μg/ml aprotinin, 1 μg/ml leupeptin hemisulfate, 1 μg/ml pepstatin A, pH 7.0) using a dounce, 10 strokes. Homogenate was centrifuged at 47,000× g for 15 minutes. Membrane pellet was resuspended in 1 ml tissue buffer using the dounce, 10 strokes. An aliquot of the membrane preparation was used to determine protein concentration. For measurement of saturation binding, 10 μg of cell membranes were incubated with various concentrations of [^125I] Peptide A (iodinated by routine procedures via the Tyr residue) in 300 μl binding assay buffer (tissue buffer plus 0.15 mM Bacitracin and 0.1% ovalbumin) for 90 minutes at room temperature in 96-well plates. Non-specific binding was defined by the inclusion of 1 μM Peptide A. After the binding incubation, plates were harvested onto GF/C filters presoaked in 0.3% non-fat dry milk. […] Filter plates were then counted in a Packard Topcount™ 96-well microplate scintillation counter. Data were analyzed using GraphPad Prism (San Diego, Calif.) and Kd and Bmax values were calculated.
# Untransfected cells = test: Radioligand binding assay, untransfected cells
# T1 sequence (Q969V1 whole entry): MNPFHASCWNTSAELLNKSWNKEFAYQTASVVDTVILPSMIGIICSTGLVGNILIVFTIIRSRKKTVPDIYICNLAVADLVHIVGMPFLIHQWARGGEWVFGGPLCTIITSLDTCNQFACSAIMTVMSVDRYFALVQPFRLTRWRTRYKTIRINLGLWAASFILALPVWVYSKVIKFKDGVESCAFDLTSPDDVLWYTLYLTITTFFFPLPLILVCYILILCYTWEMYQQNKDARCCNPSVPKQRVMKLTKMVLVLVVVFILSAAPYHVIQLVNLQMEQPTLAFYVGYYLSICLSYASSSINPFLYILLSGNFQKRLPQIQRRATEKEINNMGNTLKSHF
smiles,measurement,setting,value
CSCC[C@@H]1NC(=O)[C@@H](NC(=O)[C@H](CCCNC(=N)N)NC(=O)[C@H](CC(C)C)NC(=O)[C@H](CCSC)NC(=O)[C@H](CC(=O)O)NC(=O)[C@H](Cc2ccccc2)NC(=O)[C@@H](N)CC(=O)O)CSSC[C@@H](C(=O)N[C@@H](Cc2c[nH]c3ccccc23)C(=O)N[C@@H](CCC(N)=O)C(=O)N[C@H](C(=O)O)C(C)C)NC(=O)[C@@H]2CCCN2C(=O)[C@H](CCCNC(=N)N)NC(=O)[C@H](Cc2ccc(O)c(I)c2)NC(=O)[C@H](C(C)C)NC(=O)[C@H](CCCNC(=N)N)NC(=O)CNC(=O)[C@H](CC(C)C)NC1=O [[^125I] Peptide A],Bmax,nGPCR-51; COS 7 cells transiently expressing nGPCR-51,75 finol/mg
same,estimated Bmax,nGPCR-51; HEK 293 cells transiently expressing nGPCR-51,~108 fmol/mg
same,specific radioligand binding,Untransfected cells,no specific radioligand binding
